Test system: patients with prior myocardial infarction (CARE study)
Assay: CARE: association of SNPs with pravastatin treatment in RMI prevention (genotypic RR in placebo and statin strata; Table 10)
Type: in vivo, human
Excerpt: In order to identify genetic markers associated with acute coronary events (e.g. MI, stroke, unstable angina, congestive heart failure, etc.) or response to statin treatment for the prevention of coronary events, samples from the Cholesterol and Recurrent Events (CARE) study (a randomized multicentral double-blinded trial on secondary prevention of acute coronary events with pravastatin) (Sacks et al., 1991, Am. J. Cardiol. 68: 1436-1446) were genotyped. A well-documented myocardial infarction (MI) was one of the enrollment criteria for entry into the CARE study. Patients were enrolled in the CARE trial from 80 participating study centers. […] Patients were randomized to receive either 40 mg of pravastatin once daily or a matching placebo. The primary endpoint of the trial was death from coronary heart disease and the median duration of follow-up was 5.0 years (range, 4.0 to 6.2 years). […] Secondary endpoints of other related cardiovascular or metabolic disease events, and changes in clinical variables were also recorded in pravastatin-treated and placebo groups. All individuals included in the study had signed a written informed consent form and the study protocol was approved by the respective Institutional Review Boards (IRBs).
For genotyping SNPs in CARE patient samples, DNA was extracted from blood samples using conventional DNA extraction methods such as the QIA-amp kit from Qiagen. Genotypes were obtained on an ABI PRISM® 7900HT Sequence Detection PCR system (Applied Biosystems, Foster City, Calif.) by kinetic allele-specific PCR, similar to the method described by Germer et al. (Germer S., Holland M. J., Higuchi R. 2000, Genome Res. 10: 258-266).
For statistical analysis of association of SNPs with pravastatin treatment in RMI prevention (Table 10), effect sizes were estimated through genotypic RR, including 95% CIs. Homogeneity of Cochran-Mantel-Haenszel odds ratios was tested across pravastatin and placebo strata using the Wald test. […] (this adjustment supports independence of the SNP association from conventional risk factors). This table also provides the frequency data for the at risk allele in the columns labeled “Case Y PRIMER ALLELE Nucleotide Frequency” and “Control Y PRIMER ALLELE Nucleotide Frequency”. Allele frequencies for the cases and controls ≤0.49 indicate that the at-risk allele is the minor allele. Allele frequencies ≥0.50 indicate that the at-risk allele is the major allele. An example of a SNP associated with increased risk for an adverse cardiovascular event in the placebo group using a dominant genotypic test is hCV25644901. […] However, this same SNP was protective in the statin treated group with a RR of 0.58. An example of a SNP associated with an adverse cardiovascular event in the placebo group using the allelic association test is hCV16044337 with a RR of 1.87 for the homozygous AA genotype. This same genotype was protective in the statin treated group with a RR of 0.56.

SMILES: CC[C@H](C)C(=O)O[C@H]1C[C@H](O)C=C2C=C[C@H](C)[C@H](CC[C@@H](O)C[C@@H](O)CC(=O)O)[C@H]21 [pravastatin]
- RR (relative risk for RMI) (ABCA1 hCV2741051, Het(TC) stratum, Statin vs Placebo): 0.92
- RR (relative risk for RMI) (ABCA1 hCV2741051, Maj Hom(CC) stratum, Statin vs Placebo): 0.59
- RR (relative risk for RMI) (ABCA1 hCV2741051, Min Hom(TT) stratum, Statin vs Placebo): 1.25
- RR (relative risk for RMI) (ABCA1 hCV2741051, Statin stratum, het(TC) vs. ref(CC)): 1.09
- RR (relative risk for RMI) (ABCA1 hCV2741051, Statin stratum, hom(TT) vs. ref(CC)): 1.14
- RR (relative risk for RMI) (ABCA1 hCV2741083, Het(TC) stratum, Statin vs Placebo, covars none): 1.51
- RR (relative risk for RMI) (ABCA1 hCV2741083, Maj Hom(TT) stratum, Statin vs Placebo, covars none): 0.61
- RR (relative risk for RMI) (ABCA1 hCV2741083, Min Hom(CC) stratum, Statin vs Placebo, covars none): 1.36
- RR (relative risk for RMI) (ABCA1 hCV2741083, Statin stratum, het(TC)vs. ref(TT), covars none): 1.29
- RR (relative risk for RMI) (ABCA1 hCV2741083, Statin stratum, hom (CC)vs. ref(TT), covars none): 1.00
- RR (relative risk for RMI) (ATF6 hCV25631989, Het (TC) stratum, Statin vs Placebo): 2.43
- RR (relative risk for RMI) (ATF6 hCV25631989, Maj Hom (CC) stratum, Statin vs Placebo): 0.66
- RR (relative risk for RMI) (ATF6 hCV25631989, Statin stratum, het(TC) vs. ref (CC)): 1.53
- RR (relative risk for RMI) (CYBA hCV2038, Het(AG) stratum, Statin vs Placebo, covars hx_smoke): 0.74
- RR (relative risk for RMI) (CYBA hCV2038, Maj Hom(GG) stratum, Statin vs Placebo, covars hx_smoke): 0.55
- RR (relative risk for RMI) (CYBA hCV2038, Min Hom(AA) stratum, Statin vs Placebo, covars hx_smoke): 1.38
- RR (relative risk for RMI) (CYBA hCV2038, Statin stratum, het(AG) vs. ref(GG), covars hx_smoke): 1.40
- RR (relative risk for RMI) (CYBA hCV2038, Statin stratum, hom(AA) vs. ref(GG), covars hx_smoke): 2.02
- RR (relative risk for RMI) (EDG3 hCV25610470, Het(GA) stratum, Statin vs Placebo, covars HX_SMOKE): 0.22
- RR (relative risk for RMI) (EDG3 hCV25610470, Maj Hom(GG) stratum, Statin vs Placebo, covars HX_SMOKE): 0.77
- RR (relative risk for RMI) (EDG3 hCV25610470, Min Hom(AA) stratum, Statin vs Placebo, covars HX_SMOKE): 1.10
- RR (relative risk for RMI) (EDG3 hCV25610470, Statin stratum, het(GA) vs. ref(GG), covars HX_SMOKE): 0.37
- RR (relative risk for RMI) (F7 hCV783184, Het(TG) stratum, Statin vs Placebo): 1.10
- RR (relative risk for RMI) (F7 hCV783184, Maj Hom(GG) stratum, Statin vs Placebo): 0.64
- RR (relative risk for RMI) (F7 hCV783184, Min Hom(TT) stratum, Statin vs Placebo): 2.59
- RR (relative risk for RMI) (F7 hCV783184, Statin stratum, het (TG) vs. ref(GG)): 1.28
- RR (relative risk for RMI) (F7 hCV783184, Statin stratum, hom(TT) vs. ref(GG)): 1.65
- RR (relative risk for RMI) (FCAR hCV7841642, Het(GA) stratum, Statin vs Placebo): 0.32
- RR (relative risk for RMI) (FCAR hCV7841642, Maj Hom(GG) stratum, Statin vs Placebo): 0.82
- RR (relative risk for RMI) (FCAR hCV7841642, Min Hom(AA) stratum, Statin vs Placebo): 1.33
- RR (relative risk for RMI) (FCAR hCV7841642, Statin stratum, het(GA) vs. ref(GG)): 0.60
- RR (relative risk for RMI) (FCAR hCV7841642, Statin stratum, hom (AA)vs. ref(GG)): 1.38
- RR (relative risk for RMI) (FN1 hCV9506149, Het(TA) stratum, Statin vs Placebo): 0.90
- RR (relative risk for RMI) (FN1 hCV9506149, Maj Hom(AA) stratum, Statin vs Placebo): 0.58
- RR (relative risk for RMI) (FN1 hCV9506149, Min Hom(TT) stratum, Statin vs Placebo): 1.10
- RR (relative risk for RMI) (FN1 hCV9506149, Statin stratum, het(TA) vs. ref(AA)): 1.15
- RR (relative risk for RMI) (FN1 hCV9506149, Statin stratum, hom(TT) vs. ref(AA)): 1.72
- RR (relative risk for RMI) (HLA-DPB1 hCV8851085, Het(GA) stratum, Statin vs Placebo, covars hx_smoke): 0.87
- RR (relative risk for RMI) (HLA-DPB1 hCV8851085, Maj Hom(GG) stratum, Statin vs Placebo, covars hx_smoke): 0.58
- RR (relative risk for RMI) (HLA-DPB1 hCV8851085, Min Hom(AA) stratum, Statin vs Placebo, covars hx_smoke): 2.19
- RR (relative risk for RMI) (HLA-DPB1 hCV8851085, Statin stratum, het (GA)vs. ref(GG), covars hx_smoke): 1.40
- RR (relative risk for RMI) (HLA-DPB1 hCV8851085, Statin stratum, hom(AA) vs. ref(GG), covars hx_smoke): 1.97
- RR (relative risk for RMI) (HSPG2 hCV1603656, Het(TC) stratum, Statin vs Placebo, covars hx_smoke): 0.42
- RR (relative risk for RMI) (HSPG2 hCV1603656, Maj Hom (CC) stratum, Statin vs Placebo, covars hx_smoke): 0.80
- RR (relative risk for RMI) (HSPG2 hCV1603656, Statin stratum, het (TC)vs. ref(CC), covars hx_smoke): 0.65
- RR (relative risk for RMI) (HSPG2 hCV1603692, Het(TC) stratum, Statin vs Placebo, covars none): 0.37
- RR (relative risk for RMI) (HSPG2 hCV1603692, Maj Hom (CC) stratum, Statin vs Placebo, covars none): 0.79
- RR (relative risk for RMI) (HSPG2 hCV1603692, Statin stratum, het (TC)vs. ref(CC), covars none): 0.65
- RR (relative risk for RMI) (HSPG2 hCV1603697, Het(TC) stratum, Statin vs Placebo, covars none): 0.37
- RR (relative risk for RMI) (HSPG2 hCV1603697, Maj Hom (CC) stratum, Statin vs Placebo, covars none): 0.80
- RR (relative risk for RMI) (HSPG2 hCV1603697, Statin stratum, het (TC)vs. ref(CC), covars none): 0.65

Source: patent publication US9932637B2, “Genetic polymorphisms associated with cardiovascular disorders and drug response, methods of detection and uses thereof” (CELERA CORPORATION, priority 2003, dated 2018)
